Columns and labels:
[1] = refractive index (other wavelength) (dimensionless); xn = mol fraction of the nth substance listed; conditions: 101.3 kPa, Liquid, Wavelength=632.8 nm, Standard Abbe refractometry
[2] = refractive index (other wavelength) (dimensionless); conditions: 101.3 kPa, Liquid, Wavelength=632.8 nm, Standard Abbe refractometry

CCCCCCCCCCCCCCCCCC [octadecane] + COC(=O)OC
[1], 327.67 K
Conditions | refractive index
x2 = 0 | 1.4231
x2 = 0.099 | 1.4203
x2 = 0.202 | 1.4169
x2 = 0.299 | 1.4132
x2 = 0.399 | 1.4089
x2 = 0.509 | 1.4034
x2 = 0.601 | 1.3979
x2 = 0.701 | 1.3907
x2 = 0.807 | 1.3806
x2 = 0.902 | 1.3685

COC(=O)OC [dimethyl carbonate] + CCCCCCCCCCCCCCCC
[1], x1 = 1
Conditions | refractive index
308.25 K | 1.3607
309.26 K | 1.3602
310.32 K | 1.3597
311.36 K | 1.3592
312.44 K | 1.3587
313.49 K | 1.3582
314.53 K | 1.3577
315.56 K | 1.3572
316.66 K | 1.3567
317.67 K | 1.3562
318.72 K | 1.3557

COC(=O)OC [dimethyl carbonate]
[2]
Conditions | refractive index
308.25 K | 1.3607
309.26 K | 1.3602
310.32 K | 1.3597
311.36 K | 1.3592
312.44 K | 1.3587
313.49 K | 1.3582
314.53 K | 1.3577
315.56 K | 1.3572
316.66 K | 1.3567
317.67 K | 1.3562
318.72 K | 1.3557
327.67 K | 1.3514

CCCCCCCCCCCCCCCCCC [octadecane]
Conditions | refractive index
[2], 327.67 K | 1.4231

COC(=O)OC [dimethyl carbonate] + CCCCCCCCCCCCCCCCCC
Conditions | refractive index
[1], 327.67 K, x1 = 1 | 1.3514

CCCCCCCCCCCCCCCC [hexadecane]
[2]
Conditions | refractive index
308.21 K | 1.427
309.24 K | 1.4265
310.21 K | 1.4261
311.24 K | 1.4256
312.3 K | 1.4252
313.34 K | 1.4248
314.44 K | 1.4244
315.54 K | 1.4239
316.55 K | 1.4235
317.56 K | 1.4231
318.61 K | 1.4226
